SMILES | melting point
CC[C@H](Cc1sccc1Cl)Nc1ncnc2c1ncn2[C@@H]1C[C@H](CF)[C@@H](O)[C@H]1O | 143 °C
O=Cc1ccc(OCc2coc(/C=C/c3ccc(S(=O)C(F)(F)F)cc3)n2)cc1 (configuration not stated) | 144 to 147 °C
c1ccc(OCc2ccc3ccccc3n2)cc1 | 79.5 to 80.5 °C
Cc1ccc(COc2ccc(CC(NC(=O)c3cn4ccc(-c5ccc(Cl)cc5)cc4n3)C(=O)O)cc2)cc1 (configuration not stated) | 262 °C
COC(=O)c1cnc(OC)c([N+](=O)[O-])c1 | 118 to 119 °C
C=CCC(C(=O)OC)C1(C)CCCc2c1[nH]c1ccccc21 (configuration not stated) | 115 to 116 °C
CCOC(=O)C1=CC(=NO)CC(c2ccc(Cl)cc2F)N1 (configuration not stated) | 124 to 126 °C
O=C(N[C@H]1CC[C@H](CCN2CCC(c3cccc4c3CCO4)CC2)CC1)c1ccc(C(F)(F)F)cc1 | 228 °C
CCOc1cc2c(cc1OC(C)=O)C(=O)CC1C2CCC2(C)C(OC(C)=O)CCC12 (configuration not stated) | 195 °C
COP(=S)(OC)Oc1nc(OCc2ccccc2)sc1C#N | 47 °C
CCOCc1nc2c(N)nc3cc(OCCCCCCNS(C)(=O)=O)ccc3c2n1CC(C)(C)NS(C)(=O)=O | 176 to 180 °C
CNC(=O)NC1CCC(=O)c2sccc21 (configuration not stated) | 212 to 215 °C
Cc1cc(C)c([N+](=O)[O-])cc1-n1c(C)cc(C)c(C#N)c1=O | 262 to 263 °C
COc1ccc2c(c1)c(-c1cc3c(Cl)ccnc3[nH]1)cn2C | 250 to 252 °C
O=[N+]([O-])C=C1SCCCN1S(=O)(=O)Cc1ccccc1 | 140 to 141 °C
Oc1ccc(NCCCCCCBr)cc1 | 123 to 126 °C
CC(C)COC(=O)N1CCN(C2=C(Cl)C(=O)c3ccccc3C2=O)CC1 | 92 to 94 °C
C/C(=C\C(=O)O)c1cnn(C)c1-c1ccc(F)cc1 | 123 to 124 °C
COc1cc(O)c(C(=O)C=Cc2ccc3nc[nH]c3c2)c(OC)c1 | 147 to 149 °C
CCn1ncc2c(NCC3(O)CCCCC3)c3cc(OC)ccc3nc21 | 201 to 203 °C
COC(=O)c1cc([N+](=O)[O-])c(C)s1 | 81 °C
O=c1ccoc2c3c(ccc12)OCC(CO)O3 (configuration not stated) | 125 °C
CCN(CC)CCN1C(=O)c2cscc2N(C)c2ccccc21 | 92 to 93 °C
C#CCOc1ccc2c(C)cc(=O)oc2c1C(=O)C=Cc1ccc(F)cc1 | 185 to 186 °C
CCN1C=C(C(=O)O)C(=O)CC1c1ccc2c(c1)OCO2 (configuration not stated) | 173 to 175 °C
COc1ccc(-c2nc(Oc3ccc(C)cc3)ncc2C(=O)N2CCOCC2)cc1OC | 152 °C

SMILES | melting point
CN(C)C=Nc1[nH]nc(N2CCOCC2)c1C#N | 182 to 183 °C
Cn1c(C(F)(F)F)cc(=O)n(-c2cc(C=O)c(Cl)cc2Cl)c1=O | 117 to 120 °C
COC(=O)c1ccc(COc2ccc3cc(-c4csc(-c5ccccc5)n4)ccc3c2Br)cc1 | 173 to 175 °C
CC#CCOc1ccc(S(=O)(=O)NC(C(=O)NO)c2ccc(OCCN3CCN(C(=O)OC(C)(C)C)CC3)cc2)cc1 (configuration not stated) | 92 to 95 °C
CC(Oc1ncn(-c2ccc(Br)cc2)n1)C(=O)N1CCCC1 (configuration not stated) | 144 to 145 °C
O=c1nc(-c2cccc(CCc3nnn[nH]3)n2)sc2ccccc12 | 157 °C
CCOc1ccc([N+](=O)[O-])c(NC2CCCCCC2)c1 | 83 °C
CC(C)c1nc(N)cc(=O)[nH]1 | 229 to 230 °C
COC(=O)c1ccc(NC(=O)C=C(C)c2cc(C(C)C)c(C(C)C)o2)cc1 | 167 to 169 °C
Nc1nc(NCCO)nc(-c2cc(Cl)ccc2Cl)n1 | 198 to 199 °C
CC1(C)OCc2c1nc1ccccc1c2Cl | 108 to 110 °C
CCn1ccc(=O)c2cnc(-c3ccncc3)nc21 | 200 to 202 °C
S=C(Nc1ccccc1)Nc1ncccc1OCc1c(Cl)cccc1Cl | 148 to 149 °C
c1ccc2c(OCCN3CCCCC3)c3ccccc3c(OCCN3CCCCC3)c2c1 | 103 to 106 °C
CCOC(=O)c1cnn(C)c1C(=O)Nc1ccc2nc(-c3ccccc3)nn2c1 | 251 to 254 °C
NN1C=NNC1=Cc1ccccc1O | 210 to 212 °C
Cc1cc(C)c(S(=O)(=O)N[C@@H](CNC(=O)c2ccc3c(cnn3CCc3cc(=O)[nH]c(N)n3)c2)C(=O)O)c(C)c1 | 194 to 195 °C
NCc1ccc(N2CCN(c3ccc(OCC(=O)O)cc3)C2=O)cc1 | > 250 °C
Fc1ccc(-c2ncn(C3CCNCC3)c2-c2ccnc(Oc3ccc(Oc4ccccc4)cc3)n2)cc1 | 174 to 175 °C
CN1C(=O)CN(c2ccc(F)cc2)NC1=O | 205 to 206 °C
COC(=O)c1ccc(NNC(=O)C(C)C)cc1S(N)(=O)=O | 198 to 200 °C
Cc1ccccc1CC(=O)Nc1ccc(C(=O)N2Cc3cccn3Cc3ccccc32)cc1 | 198 to 200 °C
CC(NC(=O)c1ccc(NC(=O)c2ccccc2SSc2ccccc2C(=O)Nc2ccc(C(=O)NC(C)C(=O)O)cc2)cc1)C(=O)O (configuration not stated) | 265 °C
CC(=O)NC(Cc1c[nH]c2ccccc12)C(=O)CCc1cc(C(F)(F)F)cc(C(F)(F)F)c1 (configuration not stated) | 50 to 53 °C
CC(=O)OCc1nc(C(Cl)Cl)cnc1N1C(=O)c2ccccc2C1=O | 117 to 118 °C
CC[C@@]1(C)OC(=O)C(c2ccc(F)cc2)=C1c1ccc(S(C)(=O)=O)cc1 | 120 to 121 °C

SMILES | melting point
Cc1cc(C)c2c(c1)OC(C)(COc1ccc([N+](=O)[O-])cc1)C=C2 (configuration not stated) | 116 to 118 °C
CCCCCCCCCCCCCCOc1ccc(C(=O)OC)cc1Cl | 42 to 43 °C
COC(=O)CCC/C=C/c1nn(-c2ccc(NC(C)=O)cc2)c2c1CCC2 | 118 to 120 °C
C=C1CC1(c1ccc(OC)cc1)c1ccc(OC)cc1 | 31 to 32 °C
BrCc1ccc2sc3ccc4ccccc4c3c2c1 | 202 to 203 °C
CCc1nc2cc(C(=O)NC)c(Cl)cc2n1-c1ccc(CCOC(=O)NS(=O)(=O)c2ccc(C)cc2)cc1 | 201 to 204 °C
CCOc1nn(Cc2ccc(OCc3cn4c(-c5ccccc5)cccc4n3)cc2)cc1CCC(=O)O | 160 to 161 °C
CC1(O)CC(=O)OC(c2ccc(-c3ccccc3)cc2)C1Br (configuration not stated) | 173 to 176 °C
NC(=O)Nc1ccc2oc([N+](=O)[O-])c(-c3ccccc3)c2c1 | 230 to 232 °C
Oc1cc(CCl)nc(C(Cl)(Cl)Cl)n1 | 138 to 144 °C
CC(C)n1c(=O)c(C(=O)O)cc2ccccc21 | 168 to 169 °C
Cc1cc(O)c2c(c1C)C(=O)CC2 | 171 to 173 °C
CC(C)N1CCC2(CC1)CSC1=C(O2)c2ccccc2C(=O)C1=O | 197 to 198 °C
FC(F)(F)c1ccc(OCCCc2cn(C(c3ccccc3)(c3ccccc3)c3ccccc3)cn2)cc1 | 150 to 151 °C
COc1cc(C=O)cc(OCCCC(=O)O)c1OC | 90 to 92 °C
CNc1nc(-c2ccc(F)cc2)cc(C(C)C)n1 | 75 to 76 °C
CCOC(=O)c1c(Cl)c2ccc(C)nc2n(C)c1=O | 108 to 111 °C
CC(=O)OCC(C)C1CCC2C3CC=C4CC(OC(C)=O)CCC4(C)C3CCC12C (configuration not stated) | 125 to 127 °C
COC(=O)c1ccc2[nH]c(C(=O)OCc3ccccc3)cc2c1 | 128 to 129 °C
Cc1oc(-c2cccs2)nc1COc1ccc(CON=C(CCC(=O)O)c2ccccc2)cc1 | 142 to 143 °C
CCOC(=O)c1ccc([N+](=O)[O-])c(O)c1 | 80 to 81 °C
COC(=O)CCn1c(=O)n2n(c1=O)C(C(=O)OC(C)(C)C)C=CC2 (configuration not stated) | 77 to 78 °C
CNC(=O)c1ccc(Br)c2nsnc12 | 156 to 160 °C
COC(=O)c1ccc2c(c1C(=O)OC)OCO2 | 57 to 59 °C
C=CCc1c(OC)cc(OC)cc1C(=O)O | 109 to 111 °C
COc1ccc(N2CCN(c3c(C)c(C)c4c(c3C)C(C)(O)C(C)(C)O4)CC2)cc1 (configuration not stated) | 139 to 141 °C

SMILES | melting point
COc1ccc(N2CCCn3c2nc2c(Cl)ccc(C(OC(F)F)C(F)(F)F)c23)c(C)c1 (configuration not stated) | 178 to 182 °C
Cc1ccccc1NC(=O)Nc1ccc(CC(=O)N[C@@H](CC(C)C)C(=O)O)cc1 | 178 to 179 °C
Cc1cc(CCCCCCCOc2ccc(C(=O)OC(C)(C)C)cc2)on1 | 76 °C
O=c1c2ccccc2n(CCCCCl)c2ccc(Cl)cc12 | 101 to 106 °C
CCCCCCCCN(C)C(N)=NC#N | 101 to 104 °C
COC(=O)c1ccc2nc(-c3ccc(C(C)(C)C)cc3)[nH]c2c1 | 152 °C
CCN1c2ncc(CC(O)c3ccncc3)cc2C(=O)N(C)c2ccc(F)nc21 (configuration not stated) | 174 to 176 °C
Cc1cc(C)c2c(n1)N(C(=O)Cl)c1ccccc1N(C)C2=O | 205 to 207 °C
CC(=O)c1cc(C#N)c(OCc2ccccc2)nc1C | 94 to 99 °C
O=C(NC1CCN(Cc2ccccc2)CC1)c1ccc(NCc2ccnc3ccccc23)cc1 | 184 to 188 °C
Cc1ccc2c(=O)[nH]c(C3CCN(C)CC3)cc2c1 | 236 to 238 °C
COCCCCCC(=NO)c1ccc(Cl)c(Cl)c1 | 53 to 54.5 °C
COC(=O)[C@H](Cc1cc(Cl)c(OCCCNC(=O)OC(C)(C)C)c(Cl)c1)NC(=O)C(F)(F)F | 90 to 91.5 °C
CCCCCCCCCCCCCCCCOC(=O)NCCN1CCOCC1 | 65 °C
C=CCOc1cc(N)c([N+](=O)[O-])cc1I | 74 °C
CCCCCN(CCCCC)C(=O)[C@H]1Cc2c([nH]c3ccccc23)CN1C(=O)Nc1cccc(C)c1 | 154 to 155 °C
CN1CCC(c2[nH]c(=O)c3ccccc3c2-c2ccccc2)CC1 | 258 to 260 °C
CN=C(NS(=O)(=O)c1ccc(Cl)c(Cl)c1)SC | 158 to 159 °C
O=C1c2ccncc2C(=O)c2c(F)ccc(O)c21 | 189 to 192 °C
CC(=O)Cn1c(CO)nc(C(C)C)c1Sc1cc(Cl)cc(Cl)c1 | 165 to 167 °C
N#Cc1ccc(N=Nc2ccc(OCCO)c(C#N)c2)cc1 | 138 °C
COc1ccc(C)cc1NC(=O)Nc1ccc(N2CCN(Cc3ccccc3)CC2)cc1 | 184 to 186 °C
O=C1c2ccccc2C(=O)N1CCCN1CCC(C(c2ccccc2)c2ccccc2)CC1 | 104 to 106 °C
CCOc1ccc(Cc2cnc(N)nc2N)cc1OC | 195 to 196 °C
